Measured values reported in US9814761B2, “Compositions, methods and assays comprising amylin or amlyin analogs for abeta-peptide mediated disorders” (TRUSTEES OF BOSTON UNIVERSITY, priority 2012, dated 2017).
“Also recorded” adds a separate entry of the source.

Legend:
5XFAD mice [1] = experiment: Y-water Maze test after long-term amylin treatment; format: in vivo
Method: 5XFAD mice were treated with either i.p amylin or saline for 8 weeks followed by Y-water maze test. The average latency of recognizing the object after the training was calculated for each group (n=10) and statistical significance for the comparison is shown.

serum Aβ1-40 and Aβ1-42 [2] = experiment: amylin challenge test: i.p. injection, serum Aβ1-40 and Aβ1-42 by ELISA, control (wild type) mice; format: in vivo
Method: (§1) TgAPP2576 mice (n=5) and control mice (n=5) were used. Intraperitoneal injection of amylin (20 mg/kg) was performed, and blood was drawn and collected at pre-injection, after injection at 5 minutes, 1 hr and 24 hrs. Serum Aβ1-40 and Aβ1-42 were measured using ELISA assay. The results of serum Aβ1-40 and Aβ1-42 for each individual mouse are shown. This experiment has been repeated twice for each mouse and similar results were obtained.
(§2) As shown at FIGS. 3A-3E, amylin injection removes Aβ from the brain into blood in APP transgenic mice. Both the Tg2576 and wild type (WT) mice were used for the amylin challenge test. FIGS. 3A-3B. Amylin (20 mg/kg) was intraperitoneally injected (i.p), and blood was drawn and collected at the time points of pre-injection (the control n=7; Tg2576 n=11), after injection 5 minutes (the control n=7; Tg2576 n=6), 1 hr (the control n=7; Tg2576 n=10) and 24 hrs (the control n=7; Tg2576 n=11). Serum Aβ1-40 and Aβ1-42 were measured by using the ELISA assays. FIGS. 3C-3E. The levels of serum Aβ1-40 and Aβ1-42 at pre-injection of amylin were treated as 1 s, and the relative fold increase after amylin injection at each time point was shown and compared with the pre-injection level by using two-way ANOVA. ***p<0.01; **p<0.05 and *p<0.10.
(§3) FIGS. 6A-6D depict amylin injection and serum Aβ in mice. Both control mice (wild type) and Tg2576 mice were used for the amylin injection test. Amylin (20 mcg/kg) was intraperitoneally injected (i.p), and blood was drawn at the following time points: at baseline or pre-injection (controls n=7; Tg2576 n=11), at 5 minutes (controls n=7; Tg2576 n=6), at 1 hr (controls n=7; Tg2576 n=10) and at 24 hrs (controls n=7; Tg2576 n=11) post injection. Serum Aβ1-40 and Aβ1-42 were measured by using the ELISA assays. The levels of serum Aβ1-40 and Aβ1-42 at pre-injection of amylin were treated as 1 s, and the relative fold increase after amylin injection at each time point was shown and compared with the pre-injection level by using a two-way ANOVA. ***p<0.01; **p<0.05 and *p<0.10.
FIG. 7 depicts results of i.p injection of pramlintide, an analog of amylin, into one Tg2576 mouse (A1) and two wild type mice (N1 and N2) and comparison of their serum Aβ40 level before and after the injection.
(§4) Validation: We used the APP transgenic mice (Tg2576) to conduct amylin challenge test. Tg2576 mice have Aβ deposits in the brain like the AD pathology. After intraperitoneal injection of amylin (20 mg/kg), Tg2576 mice (n=5) presented with the increase of serum Aβ40 and Aβ42 at 5 minutes, 1 hr and 24 hrs compared to the pre-injection levels of serum Aβ40 and Aβ42.

5XFAD mice [3] = experiment: Y Maze Spontaneous Alternation test after long-term amylin treatment; format: in vivo; conditions: 5XFAD mice aged 2 months; amylin 20 mcg/kg i.p. daily for 10 weeks vs. saline; n=8
Method: Since amylin can enhance the removal of Aβ out of the brain into blood, it was tested whether amylin and its analogs can be a treatment for AD. Thus, we treated 5XFAD mice aged 2 months old with i.p injection of amylin (20 mcg/kg) vs. saline (n=8 in each group) daily for 10 weeks, and then conducted Y Maze Spontaneous Alternation test for measuring the willingness of mice to explore new environments.

serum Aβ1-40 and Aβ1-42 [4] = experiment: amylin challenge test, serum Aβ, 5XFAD mice; format: in vivo
From the text: The higher the levels of Aβ and the number of amyloid plaques in the brain, the higher fold of serum Aβ was increased after the peripheral amylin challenge.

[5] = Banks and Kastin, 1998; cited from earlier work
mouse models = experiment: daily dosing in mouse models, memory functions; format: in vivo, mice
[6] = tested on: Aβ1-40 and Aβ1-42 in blood; experiment: amylin challenge test, blood Aβ, APP Dutch mutation mouse line; format: in vivo, APP mouse line which carries the APP Dutch mutation
[7] = tested on: Aβ monomers and Aβ oligomers in the brain; experiment: Aβ in the brain after amylin treatment, western blots and ELISA assays; format: in vivo; conditions: 5XFAD mice; amylin treatment compared to saline
From the text: Changes of Aβ in the brain were examined after the amylin treatment in 5XFAD mice using both western blots and ELISA assays. […] Thus, without wishing to be bound or limited by theory, the benefits of memory improvement from amylin treatment is mediated, in part, by 1) removing Aβ from the AD brain into blood and 2) reducing the amount of Aβ oligomers in the brain.

serum Aβ1-40 and Aβ1-42 [8] = experiment: amylin challenge test: i.p. injection, serum Aβ1-40 and Aβ1-42 by ELISA, Tg2576 mice; format: in vivo; conditions: 5 minutes
Method: as §1, §2, §3, §4

[9] = control mice (n=5), amylin 20 mg/kg intraperitoneal
[10] = control mice (wild type), single amylin injection 20 mcg/kg i.p.
[11] = Tg2576 mice (n=5), amylin 20 mg/kg intraperitoneal, 1 hr and 24 hrs
[12] = Tg2576 mice, single amylin injection 20 mcg/kg i.p., 1 hr, 24 hrs

## amylin (KCNTATCATQRLANFLVHSSNNFGAILSSTNVGSNTY; listed as Homo sapiens)
5XFAD mice [1]; 5XFAD mice, i.p. amylin or saline for 8 weeks, n=10
  Y-water maze, average latency of recognizing the object after the training: improves; also recorded: improved memory impairment
5XFAD mice [1]; APP transgenic mice, long-term amylin treatment vs placebo
  time for acquisition (escaping onto the platform): significantly reduced
5XFAD mice [1]; APP transgenic mice, long-term amylin treatment vs placebo, at 30 minutes and at 3 days, p<0.02
  memory retention: time to find the platform: shortening the time to find the platform
Serum Aβ1-40 and Aβ1-42 [2]; [9]
  serum Aβ40 compared to the pre-injection level: did not have these surges
  serum Aβ42 compared to the pre-injection level: did not have these surges
Serum Aβ1-40 and Aβ1-42 [2]; [10]
  serum Aβ40 compared to the pre-injection level: none of the control mice (wild type), had surges
  serum Aβ42 compared to the pre-injection level: none of the control mice (wild type), had surges
5XFAD mice [3]
  % alternation rate: significantly increased
Serum Aβ1-40 and Aβ1-42 [4]; 5XFAD mice aged 3 months, i.p. injection of amylin
  Aβ1-42 in serum: increased level
Serum Aβ1-40 and Aβ1-42 [4]; different aged 5XFAD mice
  serum Aβ levels after peripheral amylin injection: increase of serum Aβ levels reflecting the amounts of Aβ in the brains
[5]
  passage through the brain blood barrier (BBB) into the brain: freely passes through the brain blood barrier (BBB)
Mouse models
  memory functions / cognition: increased memory functions
[6]
  Aβ1-40 in blood: surge
[7]
  amount of Aβ monomers in the brain: did not change
  amount of Aβ oligomers in the brain: significantly reduced
Serum Aβ1-40 and Aβ1-42 [8]; [11]
  serum Aβ40 compared to the pre-injection level: increase
  serum Aβ42 compared to the pre-injection level: increase
Serum Aβ1-40 and Aβ1-42 [8]; [12]
  serum Aβ40 compared to the pre-injection level: surges
  serum Aβ42 compared to the pre-injection level: surges
